{
  "source": "patent US20250228841A1",
  "about": "“COMPOSITIONS AFFECTING PIGMENT PRODUCTION AND METHODS FOR TREATMENT OF BACTERIAL DISEASES” (Aptorum Therapeutics Limited, priority 2024, published 2025)",
  "key": {"[1]": {"assay": "Solubility in solutions simulating gastric juice and intestinal fluid", "type": "physicochemical", "excerpt": "The following table (Table 4) illustrates the solubility of two different compounds, NP16-XL-016 (hereinafter as “IM032”) and NP16-XL-061 (hereinafter as “IM032-C1”), in two solutions with different pH values simulating the pH of gastric juice and human intestinal fluid using HCl and phosphate buffer respectively."}, "MDCK cells": {"system": "MDCK cells", "assay": "Cytotoxic activity on MDCK cells", "type": "cell-based"}, "S. aureus COL [2]": {"system": "S. aureus COL", "assay": "Hydrogen peroxide susceptibility assay", "type": "cell-based, Staphylococcus aureus", "conditions": "S. aureus COL grown with NP16 (40 μM); 440 mM H2O2, 1 hr", "method": "(§1) S. aureus was grown in BHI with or without NP16 (40 μM). After 2 days, bacteria were washed twice in PBS, diluted to a concentration of 1×10^7 CFUs per 100 μl reaction mixture in a 96-well plate. Hydrogen peroxide (H2O2) in PBS was added to a 440 mM final concentration, and the plate was incubated for 1 hr at 37° C. with shaking. The reaction was stopped by the addition of 1,000 U/ml of exogenous catalase (Sigma-Aldrich, St. Louis, MO), and bacterial viability was assessed by plating dilutions on BHI agar plates."}, "[3]": {"system": "non-pigmented strain RN6390", "assay": "Hydrogen peroxide susceptibility assay, non-pigmented strain", "type": "cell-based, Staphylococcus aureus", "method": "as §1"}, "S. aureus COL [4]": {"system": "S. aureus COL", "assay": "Bactericidal activity of human polymorphonuclear leukocytes (neutrophil killing)", "type": "cell-based, Staphylococcus aureus", "conditions": "NP16-treated S. aureus COL", "method": "The killing of S. aureus by human polymorphonuclear leukocytes (PMNs) was determined as previously described, with some modifications. Briefly, PMNs (10^6) were mixed with ˜10^7 opsonized S. aureus bacteria MOI=10 in 24-well tissue culture plates. After centrifuged at 380 g for 8 min, plates were incubated at 37° C. for up to 1.5 h. PMNs were lysed with saponin (20 min on ice) and plated on BHIA plates. The percent survival was calculated by normalized with time zero. Statistics were performed with the Student's t-test (GraphPad Prism)."}, "S. aureus COL [5]": {"system": "S. aureus COL", "assay": "Murine intraperitoneal infection model, liver and spleen CFU", "type": "in vivo, Staphylococcus aureus", "conditions": "BALB/c mice, i.p. S. aureus COL; 0.35 mg twice per day (days -1, 0, 1 and 2); 72 hours; P<0.01", "method": "(§2) For other S. aureus sub-type, eight-to ten-week-old female BALB/c mice were injected intraperitoneally (i.p) with 4×10^8 CFUs of early stationary phase S. aureus COL. After 3 d, animals were euthanized, the liver and spleen were isolated, homogenized in PBS, and plated on to obtain viable counts. For the treatment study, mice were randomized into two groups at the start of the experiment and administered, i.p., either 0.35 mg of NP16 or PBS with 5% Tween-80 as a control, twice per day, starting on d-1 to d 2 (a total of eight doses for each). Intraperitoneal challenge with 4×10^8 CFUs of early stationary phases S. aureus COL was performed on d 0. The mice were sacrificed on d 3 for enumeration of bacterial CFUs in liver and spleen homogenates."}, "[6]": {"system": "clinical isolate S. aureus strain AE052", "assay": "Murine intraperitoneal infection model, kidney CFU", "type": "in vivo, Staphylococcus aureus", "method": "as §2\nFor the clinical isolate S. aureus strain AE052, all operations were similar to those used for the COL strain, except 10^8 CFUs of early stationary phase bacteria were used in the infection model, and kidneys were collected for monitoring bacterial loads. Statistics were performed using the Student's t-test (GraphPad Prism)."}, "[7]": {"system": "10 different Staphylococcus aureus (S. aureus) strains", "assay": "Inhibition of staphyloxanthin production by IM032 in different S. aureus strains (overall)", "type": "cell-based", "conditions": "any concentration of IM032 (up to 4,000 nM)", "method": "Compound IM032 was evaluated for its in vitro efficacy to inhibit staphyloxanthin production in 10 different Staphylococcus aureus (S. aureus) strains, SH1000, HG003, ATCC29213, ATCC700698, COL, JE2, LAC, USA300-3, Newman and ST239III.\nThe test item was dissolved at 44.9 mg/mL in DMSO at 37° C., aliquoted into several tubes, and stored at −20° C. until use. On the day of testing, a stock solution was serially diluted to testing concentrations with DMSO. All solutions were vortexed and mixed with a pipette to achieve homogeneity immediately before dilution. A correction factor for purity was not applied to the test item preparations.\nEach test item solution (6 μL) was combined with 0.6 mL of S. aureus culture in brain heart infusion broth (CFU per well=1×10^7). 12-wells repeats were performed for each concentration in 96-well 2-mL plates. The plates were then incubated in a shaker at 37° C., 250 rpm for 24 hours. […] After centrifugation, 100 μL of supernatant was transferred to a 96-well cell culture plate and OD450 was measured. The relative pigment production at each tested concentration was calculated as follows: […]\nThe IC50 for each test was determined based on the calculated inhibition ratio from above with Prism 6.0 by employing a non-linear regression (four parameters) fitting method with assigned bottom and top at 0.05 and 0.95 respectively. […]"}, "[8]": {"system": "MRSA USA 300 ATCC BAA-1717", "assay": "Mouse (LD0-20) bacteremia model, bacterial counts in organs", "type": "in vivo, Staphylococcus aureus", "conditions": "BALB/c mice, IV MRSA USA 300 ATCC BAA-1717; IM032 0.3-30 mg/kg PO BID 7 days; Day 7", "method": "A bacterial strain, USA 300 MRSA BAA-1717, was used to infect BALB/c (female). Test animals were intravenously (IV) inoculated with MRSA ATCC BAA-1717 at a target density of 1×10^6 CFU/mouse. Test substance, IM032 at 0, 0.3, 1, 3, 10, and 30 mg/kg, was administered orally (PO) twice daily (BID) for a total of 7 dosing days.\nThe reference agents, vancomycin at 3 mg/kg was administered IV once (QD) at 1 h after infection for 7 consecutive days.\nWith reference to FIG. 9, the animals were IV inoculated with MRSA USA 300 ATCC BAA-1717 at 1.02×10^6 CFU/mouse. IM032 at 0.3, 1, 3, 10, and 30 mg/kg were orally (PO) administrated twice daily (BID) at 1 and 7 h after the infection on Day 1, and then twice daily at 6-hour intervals in the next 6 days for a total of 7 days of dosing. Vancomycin, at 3 mg/kg, was administered intravenously (IV) at 1 h after the infection on Day 1 and then once a day in the next 6 days for a total of 7 days of dosing. All the test animals in the IM032 treatment, reference vancomycin and the vehicle control groups were sacrificed at 168 hours (Day 7) after the infection. […] Statistical significance compared to the respective vehicle control was determined by unpaired student t-tests. […]\nWith reference to FIG. 10, bacterial density in lung and liver were determined. […] Statistical significance compared to the respective vehicle control was determined by unpaired student t-tests. […]"}, "[9]": {"system": "methicillin-resistant S. aureus (MRSA)", "assay": "Mouse MRSA skin infection model, wound closure", "type": "in vivo, Staphylococcus aureus", "excerpt": "Visual wound healing/closure in different treatment groups of mice can be observed in FIG. 11B."}},
  "data": [
    {"smiles": "O=C(/C=C/c1ccccc1Cl)Nc1ccc(S(=O)(=O)N2CCCCC2)cc1", "note": "[IM032-Cl, 3-(6-chlorophenyl)-N-[4-(1-piperidine-1-sulfonyl)phenyl] acrylamide]", "values": [
      {"measurement": "Solubility in pH 2 (0.1N HCl + 0.1% Tween 80) - simulating human stomach", "setting": "[1]; pH 2", "result": "<LOQ"}
    ]},
    {"smiles": "O=C(/C=C/c1ccccc1)Nc1ccc(S(=O)(=O)N2CCCC2)cc1", "note": "[NP16, 3-phenyl-N-[4-(1-pyrrolidinyl-sulfonyl)phenyl]acrylamide]", "values": [
      {"measurement": "effect on the growth of MDCK cells (cytotoxic activity)", "setting": "MDCK cells", "result": "no effect"},
      {"measurement": "susceptibility to killing by hydrogen peroxide", "setting": "S. aureus COL [2]", "result": "increased susceptibility"},
      {"measurement": "susceptibility to hydrogen peroxide killing irrespective of treatment", "setting": "[3]", "result": "similar"},
      {"measurement": "susceptibility to killing by neutrophils", "setting": "S. aureus COL [4]", "result": "increased susceptibility"},
      {"measurement": "bacterial counts in the livers and spleens versus control group", "setting": "S. aureus COL [5]", "result": "significantly lower"},
      {"measurement": "mice with kidney bacterial counts below the detection threshold", "setting": "[6]; AE052 infection, n=10, control group 2 of 10", "result": "6 of 10"},
      {"measurement": "bacterial counts in the kidneys versus control group", "setting": "[6]; mice infected with AE052, 0.35 mg twice per day, P<0.001", "result": "significantly lower"}
    ]},
    {"smiles": "O=C(/C=C/c1ccccc1Br)Nc1ccc(S(=O)(=O)N2CCCCC2)cc1", "note": "[NP16-XL-016, 3-(6-bromophenyl)-N-[4-(1-piperidine-1-sulfonyl)phenyl] acrylamide]", "values": [
      {"measurement": "solubility in two biorelevant media relative to IM032-C1", "setting": "[1]; pH 2 and pH 7.4, fold higher than IM032-C1", "result": "> 20", "unit": "×"},
      {"measurement": "bactericidal effect (reduction in optical density)", "setting": "[7]", "result": "not observed"},
      {"measurement": "bacteria count across major organs", "setting": "[8]", "result": "statistically significant reduction"},
      {"measurement": "wound healing compared with 2% Mupirocin and Linezolid", "setting": "[9]; oral 30 mg/kg twice a day", "result": "statistically significant improvement"},
      {"measurement": "visual wound healing (observed size of the closure) among the three groups", "setting": "[9]; oral BID for 7 days, FIG. 11B", "result": "best visual wound healing"}
    ]}
  ]
}
